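Dose response: 5 concentrations. Exposure: 48 h. Format: 96-well plates. Endpoint: linear interpolation; highest concentration if not reached. Abbreviation: GI50, concentration required for 50% inhibition of growth.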 The source made the active and inactive calls. Rule as the data show it: active = GI50 up to about 1.1 µM and inactive = higher.
Experiments:
Assay in all cases: NCI-60 cell line screen, 48 h
[1] = test system: ACHN
[2] = test system: NCI-H460
[3] = test system: Malme-3M
[4] = test system: LXFL 529
[5] = test system: HT-29
[6] = test system: A498
[7] = test system: SK-MEL-28
[8] = test system: RPMI-8226
[9] = test system: KM12
[10] = test system: UO-31
[11] = test system: M14
[12] = test system: M19-MEL
[13] = test system: A549
[14] = test system: MDA-MB-231
[15] = test system: RXF 631
[16] = test system: NCI-H23
[17] = test system: MCF7
[18] = test system: HL-60
[19] = test system: SN12C
[20] = test system: MOLT-4
[21] = test system: NCI-H522
[22] = test system: SK-MEL-2
[23] = test system: SF-539
[24] = test system: SNB-75
[25] = test system: TK-10
[26] = test system: LOX IMVI
[27] = test system: NCI-H226
[28] = test system: COLO 205
[29] = test system: HOP-92
[30] = test system: OVCAR-4
[31] = test system: DLD-1
[32] = test system: T47D
[33] = test system: HCT-15
[34] = test system: DU-145
[35] = test system: NCI/ADR-RES
[36] = test system: OVCAR-5
[37] = test system: HCT-116
[38] = test system: Hs-578T
[39] = test system: K562
[40] = test system: DMS-273
[41] = test system: EKVX
[42] = test system: CCRF-CEM
[43] = test system: OVCAR-8
[44] = test system: SNB-19
[45] = test system: SK-OV-3
[46] = test system: SR
[47] = test system: HOP-62
[48] = test system: SF-295
[49] = test system: HCC 2998
[50] = test system: U-251
[51] = test system: KM-20L2
[52] = test system: UACC-62
[53] = test system: SW-620
[54] = test system: RXF 393
[55] = test system: PC-3
[56] = test system: BT-549
[57] = test system: MDA-MB-435
[58] = test system: IGROV-1
[59] = test system: SK-MEL-5
[60] = test system: SNB-78
[61] = test system: 786-0
[62] = test system: CAKI-1
[63] = test system: UACC-257
[64] = test system: SF-268
[65] = test system: MDA-N
[66] = test system: OVCAR-3
[67] = test system: DMS-114
[68] = test system: XF498

**Q.** What does the source list for CC(=O)[C@@]1(O)CC[C@H]2[C@@H]3C[C@H](C)C4=CC(=O)C=C[C@]4(C)[C@@]3(F)[C@@H](O)C[C@@]21C [FLUOROMETHOLONE]?
**A.** GI50 [1]: > 100 µM (inactive); GI50 [2]: > 100 µM (inactive); GI50 [3]: > 100 µM (inactive); GI50 [4]: > 100 µM (inactive); GI50 [5]: > 100 µM (inactive); GI50 [6]: > 100 µM (inactive); GI50 [7]: > 100 µM (inactive); GI50 [8]: > 14.6 µM (inactive); GI50 [9]: > 100 µM (inactive); GI50 [10]: > 100 µM (inactive); GI50 [11]: > 100 µM (inactive); GI50 [12]: > 100 µM (inactive); GI50 [13]: > 100 µM (inactive); GI50 [14]: > 91 µM (inactive); GI50 [15]: > 100 µM (inactive); GI50 [16]: > 100 µM (inactive); GI50 [17]: > 100 µM (inactive); GI50 [18]: > 100 µM (inactive); GI50 [19]: > 100 µM (inactive); GI50 [20]: > 100 µM (inactive); GI50 [21]: > 93.3 µM (inactive); GI50 [22]: > 100 µM (inactive); GI50 [23]: > 87.3 µM (inactive); GI50 [24]: 69.5 µM (inactive); GI50 [25]: > 100 µM (inactive); GI50 [26]: > 100 µM (inactive); GI50 [27]: > 11.3 µM (inactive); GI50 [28]: > 100 µM (inactive); GI50 [29]: > 100 µM (inactive); GI50 [30]: > 100 µM (inactive); GI50 [31]: > 100 µM (inactive); GI50 [32]: > 69.8 µM (inactive); GI50 [33]: > 100 µM; GI50 [34]: > 51.4 µM (inactive); GI50 [35]: > 100 µM (inactive); GI50 [36]: > 38.5 µM (inactive); GI50 [37]: > 100 µM (inactive); GI50 [38]: > 100 µM (inactive); GI50 [39]: > 100 µM (inactive); GI50 [40]: > 100 µM (inactive); GI50 [41]: > 67.5 µM (inactive); GI50 [42]: 1.8 µM (inactive); GI50 [43]: > 69.7 µM (inactive); GI50 [44]: > 100 µM (inactive); GI50 [45]: > 100 µM (inactive); GI50 [46]: > 100 µM (inactive); GI50 [47]: > 100 µM (inactive); GI50 [48]: > 100 µM (inactive); GI50 [49]: > 100 µM (inactive); GI50 [50]: > 100 µM (inactive); GI50 [51]: > 100 µM (inactive); GI50 [52]: > 100 µM (inactive); GI50 [53]: > 100 µM (inactive); GI50 [54]: > 91.4 µM (inactive); GI50 [55]: > 59.3 µM (inactive); GI50 [56]: > 100 µM (inactive); GI50 [57]: > 100 µM (inactive); GI50 [58]: > 100 µM (inactive); GI50 [59]: > 100 µM (inactive); GI50 [60]: > 100 µM (inactive); GI50 [61]: > 100 µM (inactive); GI50 [62]: > 100 µM (inactive); GI50 [63]: > 100 µM (inactive); GI50 [64]: > 95.1 µM (inactive); GI50 [65]: > 100 µM (inactive); GI50 [66]: > 100 µM (inactive); GI50 [67]: > 100 µM (inactive); GI50 [68]: > 53.5 µM (inactive)

**Q.** With O=C(Cc1nc2ccccc2o1)C(=O)Nc1ccccc1C(F)(F)F as the molecule, how does the GI50 [1] read?
**A.** Its GI50 is > 100 µM (inactive).

**Q.** What about the GI50 [2] of the same molecule?
**A.** The GI50 was > 100 µM (inactive).

**Q.** What about the GI50 [3] of the same molecule?
**A.** Its GI50 is > 100 µM (inactive).

**Q.** And the GI50 [4]?
**A.** Its GI50 is > 100 µM (inactive).

**Q.** What about the GI50 [5] of the same molecule?
**A.** The GI50 was > 100 µM (inactive).

**Q.** What about the GI50 [6] of the same molecule?
**A.** Its GI50 is > 100 µM (inactive).

**Q.** And the GI50 [8]?
**A.** The GI50 was > 100 µM (inactive).

**Q.** What about the GI50 [9] of the same molecule?
**A.** The GI50 was > 100 µM (inactive).

**Q.** What about the GI50 [10] of the same molecule?
**A.** Its GI50 is > 100 µM (inactive).

**Q.** And the GI50 [11]?
**A.** Its GI50 is > 100 µM (inactive).

**Q.** What about the GI50 [12] of the same molecule?
**A.** Its GI50 is > 100 µM (inactive).

**Q.** And the GI50 [13]?
**A.** The GI50 was > 100 µM (inactive).

**Q.** And the GI50 [15]?
**A.** Its GI50 is > 100 µM (inactive).

**Q.** And the GI50 [16]?
**A.** Its GI50 is > 100 µM (inactive).

**Q.** And the GI50 [18]?
**A.** Its GI50 is > 100 µM (inactive).

**Q.** And the GI50 [19]?
**A.** Its GI50 is > 100 µM (inactive).

**Q.** What about the GI50 [21] of the same molecule?
**A.** The GI50 was > 100 µM (inactive).

**Q.** And the GI50 [22]?
**A.** The GI50 was > 100 µM (inactive).

**Q.** What about the GI50 [23] of the same molecule?
**A.** The GI50 was > 100 µM (inactive).

**Q.** What about the GI50 [24] of the same molecule?
**A.** The GI50 was 63.1 µM (inactive).

**Q.** What about the GI50 [25] of the same molecule?
**A.** Its GI50 is > 100 µM (inactive).

**Q.** And the GI50 [26]?
**A.** Its GI50 is > 100 µM (inactive).

**Q.** What about the GI50 [27] of the same molecule?
**A.** Its GI50 is > 100 µM (inactive).

**Q.** What about the GI50 [28] of the same molecule?
**A.** Its GI50 is > 100 µM (inactive).

**Q.** And the GI50 [29]?
**A.** Its GI50 is > 100 µM (inactive).

**Q.** And the GI50 [30]?
**A.** The GI50 was > 100 µM (inactive).

**Q.** What about the GI50 [31] of the same molecule?
**A.** Its GI50 is > 100 µM (inactive).

**Q.** And the GI50 [33]?
**A.** Its GI50 is over 100 µM.

**Q.** What about the GI50 [36] of the same molecule?
**A.** Its GI50 is > 100 µM (inactive).

**Q.** And the GI50 [37]?
**A.** Its GI50 is > 100 µM (inactive).

**Q.** What about the GI50 [39] of the same molecule?
**A.** Its GI50 is > 100 µM (inactive).

**Q.** And the GI50 [40]?
**A.** Its GI50 is > 100 µM (inactive).

**Q.** What about the GI50 [41] of the same molecule?
**A.** The GI50 was > 100 µM (inactive).

**Q.** And the GI50 [42]?
**A.** Its GI50 is > 100 µM (inactive).

**Q.** And the GI50 [43]?
**A.** Its GI50 is > 100 µM (inactive).

**Q.** And the GI50 [44]?
**A.** The GI50 was > 100 µM (inactive).

**Q.** And the GI50 [45]?
**A.** The GI50 was > 100 µM (inactive).

**Q.** And the GI50 [47]?
**A.** The GI50 was > 100 µM (inactive).

**Q.** And the GI50 [48]?
**A.** The GI50 was > 100 µM (inactive).

**Q.** And the GI50 [49]?
**A.** Its GI50 is > 100 µM (inactive).

**Q.** What about the GI50 [50] of the same molecule?
**A.** The GI50 was > 100 µM (inactive).

**Q.** And the GI50 [51]?
**A.** The GI50 was > 100 µM (inactive).

**Q.** And the GI50 [52]?
**A.** The GI50 was > 100 µM (inactive).

**Q.** What about the GI50 [53] of the same molecule?
**A.** The GI50 was > 100 µM (inactive).

**Q.** And the GI50 [54]?
**A.** Its GI50 is > 100 µM (inactive).

**Q.** And the GI50 [58]?
**A.** Its GI50 is > 100 µM (inactive).

**Q.** What about the GI50 [59] of the same molecule?
**A.** The GI50 was > 100 µM (inactive).

**Q.** What about the GI50 [60] of the same molecule?
**A.** The GI50 was > 100 µM (inactive).

**Q.** And the GI50 [61]?
**A.** Its GI50 is > 100 µM (inactive).

**Q.** And the GI50 [62]?
**A.** Its GI50 is > 100 µM (inactive).

**Q.** What about the GI50 [63] of the same molecule?
**A.** The GI50 was > 100 µM (inactive).

**Q.** What about the GI50 [64] of the same molecule?
**A.** The GI50 was > 100 µM (inactive).

**Q.** What about the GI50 [66] of the same molecule?
**A.** The GI50 was > 100 µM (inactive).

**Q.** And the GI50 [67]?
**A.** Its GI50 is > 100 µM (inactive).

**Q.** What about the GI50 [68] of the same molecule?
**A.** Its GI50 is > 100 µM (inactive).
